Experimental data from patent publication US20020026659A1, “Developed seed and methods for making the same” (priority 1999, published 2002).

What was measured:
Assay type in all cases: in vivo
[1] = tested on: Tomato Tumbler seeds; experiment: Root elongation in germinating seeds with calcium effectors; conditions: 5 days; for Root length: 6 mM EGTA or 5 mM manganese chloride, 25° C., water 6.5; for Root elongation, in words: 6 mM EGTA, 5 mM manganese chloride
Method: (§1) To investigate other mechanisms that might disrupt calcium utilization by germinating seeds leading to adverse effects on root formation and elongation, a number of known calcium effectors were analyzed. EGTA is a well-known calcium-chelating compound which binds free calcium ions. The element, manganese, has been characterized to act as a calcium channel blocker in the cellular environment of the plasma membrane, thereby inhibiting uptake and utilization of calcium by the cell. Finally, auxins, like IBA, can disrupt calcium signaling pathways in the cell, thereby disrupting cellular developmental processes like rooting. For these experiments, seeds were germinated in the presence of these compounds, and the lengths of the roots (in mm) from 20 randomly-selected seeds (per treatment) were measured. These values were then compared to the lengths of the roots from 20 randomly-selected seeds germinated in water during the same time period and under the same environmental conditions.
(§2) Approximately 100 seeds of tomato (variety Tumbler commercially available from Ball Horticultural Company, 622 Town Road, West Chicago, Ill. 60185) were germinated in 125 mL Erlenmeyer flasks containing either 40 mL water, 6 mM EGTA or 5 mM manganese chloride at 25° C. in a lighted growth room on an orbital shaker. After 5 days, root lengths were measured and recorded (see Table 1 below).

[2] = tested on: Pepper Holiday Flame seeds; experiment: as above; conditions: 5 days; for Root length: 6 mM EGTA or 5 mM manganese chloride, 25° C., water 6.5; for Root elongation, in words: 6 mM EGTA, 5 mM manganese chloride
Method: as §1
as §2, with “pepper” for “tomato”, “Holiday Flame” for “Tumbler”

[3] = tested on: Impatiens Dazzler ® Pink seeds; experiment: as above; conditions: 6 mM EGTA, 5 days; for Root length: 5 mM manganese chloride or 8 ppm IBA, 25° C., 20 seeds, water 6.9; for Root growth, in words: 5 mM manganese chloride, 8 ppm IBA
Method: as §1
as §2, with “impatiens” for “tomato”, “Dazzler® Pink” for “Tumbler”, “EGTA,” for “EGTA or”, “chloride or 8 ppm IBA” for “chloride”

[4] = tested on: Rice Cypress seeds; experiment: as above; conditions: 5 days; for Root length: 6 mM EGTA or 5 mM manganese chloride, 25° C., water 15.6
Method: as §1
Approximately 100 seeds of rice (variety Cypress obtained from LSU Rice Research Station) were germinated in 125 mL Erlenmeyer flasks containing either 40 mL water, 6 mM EGTA or 5 mM manganese chloride at 25° C. in a lighted growth room on an orbital shaker. After 5 days, root lengths were measured and recorded (see Table 1 below).

[5] = tested on: Pansy Baby Bingo Sky Blue primed seeds; experiment: as above; conditions: 5 days; for Inhibition of root length versus water-treated seeds: 6 mM EGTA, 5 mM manganese chloride; for Root length: primed, 6 mM EGTA or 5 mM manganese chloride, 25° C., water 10.3
Method: as §1
as §2, with “100 primed” for “100”, “pansy” for “tomato”, “Baby Bingo Sky Blue” for “Tumbler”

[6] = tested on: Arabidopsis seeds; experiment: Root development of germinating seeds with sucrose in nutrient medium; conditions: 1% (w/v) added to the nutrient medium
Excerpt: (§3) Also different, Arabidopsis, but not impatiens, root development was sensitive to an ammonium/potassium ionic imbalance in the nutrient medium.

[7] = tested on: germinating impatiens seeds; experiment: as above; conditions: 1% (w/v) in the nutrient medium, liquid or solid environment
Excerpt: as §3

[8] = tested on: Vinca Coconut Cooler seeds; experiment: Root elongation in germinating seeds with calcium effectors; conditions: 6 mM EGTA or 5 mM manganese chloride, 5 days, 25° C.
Method: as §1
After 5 days, root lengths were measured and recorded (see Table 1 below).

Row | Molecule | Root length [1] | Root elongation, in words [1] | Root length [2] | Root elongation, in words [2] | Root length [3] | Root growth, in words [3] | Root length [4] | Inhibition of root elongation ([4]; 6 mM EGTA) | Inhibition of root length versus water-treated seeds [5] | Root length [5] | root development, in words [6] | root development, in words [7] | Root length ([8]; water 12.3) | Root length ([8]; water 12.3, listed as manganese) | Root elongation, in words ([4]; 5 mM manganese chloride)
1 | O=C(O)CN(CCOCCOCCN(CC(=O)O)CC(=O)O)CC(=O)O [EGTA, ethylene glycol-bis (β-aminoethyl ether)-N,N,N′,N′-tetraacetic acid] | 1.8 mm | significantly inhibited | 1.8 mm | inhibited root elongation | 0.0 mm | totally inhibited | 3.2 mm | ~80% | an even greater extent | 0.4 mm | – | – | – | – | –
2 | OC[C@H]1O[C@@](CO)(O[C@H]2O[C@H](CO)[C@@H](O)[C@H](O)[C@H]2O)[C@@H](O)[C@@H]1O [sucrose] | – | – | – | – | – | – | – | – | – | – | stimulate root development | severely inhibited | – | – | –
3 | O=C(O)CCCc1c[nH]c2ccccc12 [IBA, indole-3-butyric acid] | – | – | – | – | 0.0 mm | totally inhibited | – | – | – | – | – | – | – | – | –
4 | manganese chloride | 4.4 mm | Modest inhibition | 4.2 mm | inhibited root elongation | 0.2 mm | Some minor root growth | 15.6 mm | – | 70-90% | 1.9 mm | – | – | 3.0 mm | 3 mm | no effect
